# What was measured:
# Jurkat [1] = assay: Immunosuppressive activity in human Jurkat cells assessed as inhibition of concanavalin A-induced IL-2 production at 20 uM pretreated for 30 mins followed by concanavalin A stimulation after 12 hrs by immunoassay relative to control; format: functional
# Jurkat [2] = assay: Immunosuppressive activity in human Jurkat cells assessed as inhibition of concanavalin A-induced IL-2 production pretreated for 30 mins followed by concanavalin A stimulation after 12 hrs by immunoassay; format: functional, cell-based
# Jurkat [3] = assay: Cytotoxicity against concanavalin A-induced human Jurkat cells assessed as reduction in cell viability up to 20 uM pretreated for 30 mins followed by concanavalin A stimulation after 12 hrs by MTT assay; format: cell-based
SMILES,inhibition at 20 µM (Jurkat [1]) [%],further results
CCCCCC/C=C\CCCCCc1cc(O)c(Cl)c(O)c1,< 50,
CCCCCCCCCCCCCCc1cc(O)c(Cl)c(O)c1,< 50,
CCCCCC/C=C\CCCCCCCc1cc(O)c(Cl)c(O)c1,< 50,
CCCCCCCCCCCCCCCc1cc(O)c(Cl)c(O)c1,< 50,
CCCCCC[C@H]1C[C@H]1CCCCCCCc1cc(O)c(Cl)c(O)c1,< 50,
CCCCCC/C=C\CC/C=C\CCCc1cc(O)c(Cl)c(O)c1,< 50,
CCCCCC[C@H]1C[C@H]1CCCCCc1cc(O)c(Cl)c(O)c1,< 50,
CCCCCCCCCCCCCc1cc(O)c(Cl)c(O)c1,< 50,IC50 (Jurkat [2]): 16 µM; inhibition (Jurkat [2]): Dose-dependent effect; Activity (Jurkat [3]): Non-Toxic
